Experimental data as given in patent US20040067991A1, “Tetrahydrobenzothiazole analogues as neuroprotective agents” (priority 2003, published 2004).
“Also recorded” adds a separate entry of the source. Where a name gives a salt, the structure may show the parent alone. Read-outs that look alike come from different tables or passages of the source.

Columns and labels:
rat hippocampal neurons = test: Neuronal survival assay in cultured hippocampal neurons treated with camptothecin or etoposide; type: cell-based; details: for neurons killed / protection of primary hippocampal cells against death induced by camptothecin and etoposide (in words): camptothecin 5 μM, etoposide 2.5 μM; for neurons killed: hippocampal neurons; for neuroprotection of hippocampal neurons against camptothecin (in words): 100 nM, added 1 h before camptothecin 5 μM
Experimental: 2-amino-4,5,6,7-tetrahydrobenzothiazole hydrogen and 1-(4-methylphenyl)-2-(4,5,6,7-tetrahydro-2-imino-3(2H)-benzothiazolyl)-ethanone hydrobromide and their analogues were assessed for their ability to protect rat hippocampal cells in culture from camptothecin ([…]).
Dissociated hippocampal cell cultures were established from embryonic day 18 Sprague-Dawley rats (Harlan, Inc.) as described previously. […] 77:220-28. Cells were grown in polyethyleneimine-coated plastic dishes or 22 m^2 glass coverslips, and incubated in Neurobasal medium containing B27 supplements, 2 mM L-glutamine, 25 mg/ml gentamycin, 1 mM Hepes (Gibco BRL) and 0.001% gentamicin sulfate. All experiments were performed using 9-10 day-old cultures. Camptothecin and etoposide (Signia) were prepared as 500× stocks in DMSO. Neuron survival was quantified by established methods. […] Briefly, viable neurons in premarked fields (10× objective) were counted before experimental treatment and at specified time points thereafter. Neurons with intact neurites of uniform diameter and soma with a smooth round appearance were considered viable. In contrast neurons with fragmented neurites and vacuolated soma were considered non-viable.

PC12 cells = test: Protection of PC12 cells against camptothecin-induced cell death (BCECF AM fluorescence); type: cell-based
Experimental: The 2-amino-4,5,6,7-tetrahydrobenzothiazole hydrogen iodide, 1-(4-methylphenyl)-2-(4,5,6,7-tetrahydro-2-imino-3(2H)-benzothiazolyl)-ethanone hydrobromide, and analogues were tested for their ability to protect PC12 cells against the toxic agent, camptothecin. PC12 cells were cultured in RPMI1640 media containing 10% horse serum and 5% fetal calf serum (37° C., pH 7.4) until confluent. Thereafter, 2.2×10^4 cells per mL were added to each trough of a 96 well plate (approximately 6,270 cells per well 285 μL) and were left to grow for 12 h. The media then was removed and was replaced by media with and without the compounds to be tested, including precursor, PFTα, and numerous analogues (concentration 100-400 nM, prepared in DMSO to a final dilution of 0.4%, 8 wells per concentration). Following 6 h of incubation, camptothecin (40 μM) was added to 4 of each 8 wells, and the cells were incubated for a further 24 h. Cells then were gently washed twice with phosphate buffered saline (PBS: 0.1 M, 37° C., pH 7.4) and were incubated in PBS containing the live-cell indicator dye, 2′,7′-bis(2-carboxyethey)-5-6-carboxyfluorescein AM ester (BCECF AM: 5 μM) (Molecular Probes, CA), for 45 min in minimal light. This fluorescent dye was taken up and retained by live cells. Finally, the cells were washed twice in PBS and their fluorescence then was quantified (excitation: 490 nm, emission: 535 nm, Perkin Elmer HTS 7000).
PC12 cell survival was also assessed. One hundred percent cell survival was determined from cells incubated in the absence of both any compound and camptothecin. […] Compound-induced toxicity was assessed by comparing cells treated with compound at various concentrations in the absence of camptothecin with cells incubated in the absence of both compound and camptothecin. […] Compound-induced cellular protection was assessed by comparing cells incubated with camptothecin with cells incubated with camptothecin in the presence of compound, in a concentration-dependent manner.

C57BL/6 mice given MPTP = test: MPTP model: striatal dopamine, serotonin and metabolites by HPLC; type: in vivo, mouse; details: striatal tissue, compound 2 mg/kg + MPTP, mean±SE, 4-6 mice/group
Experimental: The ability of PFTα (5) and compounds 5× (Z-1-117) and 13 (Z-1-143) to protect dopaminergic neurons against MPTP toxicity was tested. MPTP (20 mg/kg) was administered intraperitoneally to 2 month-old male C57BL/6 mice by four injections at two hour intervals to induce dopaminergic cell death.
In a separate experiment, levels of striatal dopamine, dopamine metabolites, serotonin, and serotonin metabolites were measured using HPLC analysis. Specifically, mice were euthanatized, and striatal tissue samples were removed and levels of dopamine, DOPAC, HVA, 5-HT, 5-HIAA were quantified. […] There was no significant difference in levels of serotonin or serotonin metabolites.

[1] = 6 h preincubation with compound, camptothecin 40 μM for 24 h; read-out: PD50; concentration of compounds required to induce 50% protection (PC50) of PC12 cells from camptothecin-induced cell-death
[2] = compounds 100-400 nM, camptothecin 40 μM 24 h

Compound | EC50 (PC12 cells; [1]) [nM] | further results
CC[C@@]1(O)C(=O)OCc2c1cc1n(c2=O)Cc2cc3ccccc3nc2-1 [camptothecin, reference compound] |  | neurons killed (rat hippocampal neurons): approximately 85%
2-Imino-3-butyl-4,5,6,7-tetrahydro-3(2H)-benzothiazole hydrobromide [Compound 26] | 395 | 
Br.N=c1sc2c(n1CC(=O)c1ccccc1)CCCC2 [Compound 13, 1-phenyl-2-(4,5,6,7-tertahydro-2-imino-3(2H)-benzothiazolyl)-ethanone hydrobromide] | 169 | 5-HIAA (C57BL/6 mice given MPTP): 223 ± 45 pg/mg tissue weight; 5-HT (C57BL/6 mice given MPTP): 429 ± 42 pg/mg tissue weight; DOPAC (C57BL/6 mice given MPTP): 10 ± 10 pg/mg tissue weight; Dopamine (C57BL/6 mice given MPTP): 440 pg/mg tissue weight; HVA (C57BL/6 mice given MPTP): 91 ± 58 pg/mg tissue weight; protection of PC12 cells against camptothecin-induced death (in words) (PC12 cells; compounds 100-400 nM, camptothecin 40 μM 24 h; hydrobromide): highly potent; also recorded: highly active in PC12 cells only
Cc1ccc(Cn2c3c(sc2=N)CCCC3)cc1 [Compound 18, 2-imino-3-(4′-methylbenzyl)-4,5,6,7-tetrahydro-3(2H)-benzothiazole hydrobromide] | 1000 | 
N=c1sc2c(n1Cc1ccc(F)cc1F)CCCC2 [Compound 17, 2-imino-3-(2′,4′-difluorobenzyl)-4,5,6,7-tetrahydro-3(2H)-benzothiazole hydrobromide] | 93 | 
I.Nc1nc2c(s1)CCCC2 [precursor, 2-amino-4,5,6,7-tetrahydrobenzothiazole hydrogen iodide] |  | toxicity when administered alone to hippocampal cells (rat hippocampal neurons; concentrations up to 400 nM): neither PFTα (5) nor its precursor were toxic; protection of PC12 cells against camptothecin-induced death (in words) (PC12 cells; [2]): low activity; EC50 (PC12 cells; read-out: PD50; concentration of compounds required to induce 50% protection (PC50) of PC12 cells from camptothecin-induced cell-death; 6 h preincubation with compound, camptothecin 40 μM for 24 h): 5750 nM
CCC(=O)Cn1c2c(oc1=N)CCCC2 [Compound 28, 1-(4,5,6,7-tertahydro-2-imino-3(2H)-benzoxazolyl)-2-butanone hydrobromide] | 143 | 
Br.N=c1sc2c(n1CC(=O)c1ccc(Cl)cc1)CCCC2 [Compound 9, 1-(4-chlorophenyl)-2-(4,5,6,7-tertahydro-2-imino-3(2H)-benzothiazolyl)ethanone hydrobromide] | 187 | neuroprotection of hippocampal neurons against camptothecin (in words) (rat hippocampal neurons): significantly protected; protection of primary hippocampal cells against death induced by camptothecin and etoposide (in words) (rat hippocampal neurons; 24 h): highly potency; protection of PC12 cells against camptothecin-induced death (in words) (PC12 cells; [2]): highly potent
CC(C)(C)c1ccc(Cn2c3c(sc2=N)CCCC3)cc1 [Compound 19, 2-imino-3-(4′-tert-butylbenzyl)-4,5,6,7-tetrahydro-3(2H)-benzothiazole hydrobromide] | 315 | 
2-imino-3-(naphthalenylmethyl-4,5,6,7-tetrahydro-3(2H)-benzothiazole hydrobromide [Compound 24] | 318 | 
Br.N=c1sc2c(n1CC1CC1)CCCC2 [Compound 15, 3-(cyclopropylmethyl)-4,5,6,7-tetrahydro-2(3H)-benzothiazolimine Hydrobromide] | 728 | neuroprotection of hippocampal neurons against camptothecin (in words) (rat hippocampal neurons): could not protect neurons effectively; neuroprotection of hippocampal neurons against etoposide (in words) (rat hippocampal neurons; added 1 h before etoposide 2.5 μM): activity comparable to PFTα; protection of primary hippocampal cells against death induced by camptothecin and etoposide (in words) (rat hippocampal neurons; 24 h): highly potency; neuronal survival (rat hippocampal neurons; pretreated with 100 nM of analogue, then camptothecin (5 μM), 24 h): 23%
Br.COc1cccc(C(=O)Cn2c3c(sc2=N)CCCC3)c1 [Compound 8, 1-(3-methoxylphenyl)-2-(4,5,6,7-tertahydro-2-imino-3(2H)-benzothiazolyl)-ethanone hydrobromide] | 418 | neuroprotection of hippocampal neurons against camptothecin (in words) (rat hippocampal neurons): significantly protected; protection of primary hippocampal cells against death induced by camptothecin and etoposide (in words) (rat hippocampal neurons; 24 h): highly potency
ethyl 2-(4,5,6,7-tertahydro-2-imino-3(2H)-benzothiazolyl)-acetate hydrobromide [Compound 2] | 595 | 
1-(4-phenylphenyl)-2-(4,5,6,7-tertahydro-2-imino-3(2H)-benzothiazolyl)-ethanone hydrobromide [Compound 10] | 767 | 
N=c1sc2c(n1Cc1ccc(C(F)(F)F)cc1)CCCC2 [Compound 22, 2-imino-3-(4′-trifluorobenzyl)-4,5,6,7-tetrahydro-3(2H)-benzothiazole hydrobromide] | 327 | 
2-imino-3-(4′-fluorobenzyl)-4,5,6,7-tetrahydro-3(2H)-benzothiazole hydrobromide [Compound 16] | 154 | 
N=c1sc2c(n1CCc1ccccc1)CCCC2 [Compound 25, 2-imino-3-phenylethyl-4,5,6,7-tetrahydro-3(2H)-benzothiazole] | 1100 | 
Cc1ccc(C(=O)Cn2c3c(oc2=N)CCCC3)cc1 [Compound 27, 1-(4-methylphenyl)-2-(4,5,6,7-tetrahydro-2-imino-3(2H)-benzoxazolyl)ethanone hydrobromide] | 69 | 
Br.COc1ccccc1C(=O)Cn1c2c(sc1=N)CCCC2 [Compound 7, 1-(2-methoxylphenyl)-2-(4,5,6,7-tertahydro-2-imino-3(2H)-benzothiazolyl)-ethanone hydrobromide] | 348 | protection of PC12 cells against camptothecin-induced death (in words) (PC12 cells; [2]): highly potent
N=c1sc2c(n1Cc1cccc(Cn3c4c(sc3=N)CCCC4)n1)CCCC2 [Compound 30, 2,6-Bis[(4,5,6,7-tetrahydro-2-imino-3(2H)-benzothiazolyl)methyl]pyridine Dihydrobromide] | 133 | 
N=c1sc2c(n1Cc1ccc([N+](=O)[O-])cc1)CCCC2 [Compound 20, 2-imino-3-(4′-nitrobenzyl)-4,5,6,7-tetrahydro-3(2H)-benzothiazole hydrobromide] | 144 | 
2-imino-3-(4′-cyanobenzyl)-4,5,6,7-tetrahydro-3(2H)-benzothiazole hydrobromide [Compound 21] | 418 | 
N=c1sc2c(n1CC(=O)c1ccc(F)cc1)CCCC2 [Compound 4, 1-(4-fluorophenyl)-2-(4,5,6,7-tertahydro-2-imino-3 (2H)-benzothiazolyl)-ethanone hydrobromide] | 379 | 
Cc1ccc(-c2cn3c4c(sc3n2)CCCC4)cc1 [Compound 29, 2-(4′-methylphenyl)-5,6,7,8-tetrahydroimidazo[2,1-b]benzothiazole] | 214 | 
Br.COc1ccc(C(=O)Cn2c3c(sc2=N)CCCC3)cc1 [Compound 6, 1-(4-methoxylphenyl)-2-(4,5,6,7-tertahydro-2-imino-3(2H)-benzothiazolyl)-ethanone hydrobromide] | 182 | protection of PC12 cells against camptothecin-induced death (in words) (PC12 cells; [2]): highly potent
COc1cc([C@@H]2c3cc4c(cc3[C@@H](O[C@@H]3O[C@@H]5CO[C@@H](C)O[C@H]5[C@H](O)[C@H]3O)[C@H]3COC(=O)[C@H]23)OCO4)cc(OC)c1O [etoposide, reference compound] |  | neurons killed (rat hippocampal neurons): approximately 85%
N=c1sc2c(n1CC(=O)c1ccc([N+](=O)[O-])cc1)CCCC2 [Compound 11, 1-(4-nitrophenyl)-2-(4,5,6,7-tertahydro-2-imino-3(2H)-benzothiazolyl)ethanone hydrobromide] | 410 | 
